In experiment [1] the test system is collagen deposition. Briefly: Bleomycin-induced lung injury in mice, curative model (SIRCOL collagen assay). Type of experiment: in vivo. On the procedure: (§1) Control animals are subjected to the same protocol but received the same volume of intratracheal saline instead of BLM. Tracheal instillation is carried out under ketamin (80 mg/kg of body weight, i.p.) and xylazine (20 mg/kg de body weight, i.p.) anesthesia.
(§2) […] after endotracheal BLM or saline, the animals are killed by a lethal injection of sodium pentobarbital followed by exsanguination of abdominal aorta. Lungs are weighed and processed separately for biochemical (n=10 lungs per group) and histological studies (n=5 per group) as indicated below. The animals are randomly divided into four groups: control-saline (n=8) and control+BLM (n=15); Compound Dose 1+BLM (n=15) and Compound Dose 2+BLM (N=15). Treatments vehicle or compounds are administered for 5 weeks.
(§3) Mice are treated by daily oral administration of compound according to the invention or saline/control starting on day 0 for five weeks in the preventive model and starting on day 10 up to five weeks for the curative model. Whole lung accumulation of acid-soluble collagen is analyzed by Sircol assay.
The broad lines of the above protocol were followed. At day 0, animals received an intratracheal injection of 0.0125 UI of bleomycin (40 μl) to produce pulmonary lesions. Curative treatment group was orally administered a compound of the invention once a day for 3.5 weeks starting from day 10 to day 35. The animals are randomly divided into six groups: control-saline (n=8); 2 groups control+BLM (n=13); Compound 3 of the invention per os 40 mg/kg+BLM (n=13); Compound 3 of the invention per os 10 mg/kg+BLM (n=13) and Pirfenidone (AQCHEM, ref P1002) at 100 mg/kg per os+BLM (n=13). One bleomycin control group was stopped at day 10, the animals were killed and collagen levels were measured. For the other groups, 35 days after endotracheal BLM or saline, the animals are killed and lungs are processed as indicated above for quantification of collagen deposition and lung inflammation as indicated above. […]

Experiment [2] relates to collagen deposition. Briefly: Bleomycin-induced lung injury in mice, preventive model (SIRCOL collagen assay). As to conditions: day 35. Type of experiment: in vivo. On the procedure:
as §1, §2, §3
The broad lines of the above protocol were followed. […] 35 days after endotracheal BLM or saline, the animals are killed and lungs are processed as indicated above for quantification of collagen deposition and lung inflammation by SIRCOL assay (TebuBio, ref S1000).

Experiment [3] relates to NOX activities. Description: Nitroblue tetrazolium (NBT) superoxide test in cells. As to conditions: DPI 10 μM, 'usually'. Type of experiment: cell-based. On the procedure: Intracellular and extracellular superoxide was measured by a colorimetric technique using a quantitative nitroblue tetrazolium (NBT) test. SOD-inhibitable conversion of NBT to formazan, a fine blue precipitate, in the presence of superoxide anion was measured using Fluostar Optima spectrometer (BMG labtech). Following incubation with appropriate stimuli, cells were trypsinized (1× Trypsin-EDTA), collected by centrifugation, and washed with PBS to remove medium. 5×10^5 cells were plated on 48-well plates and incubated in Hank's balanced salt solution containing 0.5 mg/mL NBT with or without 800 U/mL SOD in the presence or absence of compounds according to the invention. As a control, DPI was included at a final concentration of 10 μM. After 2.5 h, cells were fixed and washed with methanol to remove non reduced NBT. The reduced formazan was then dissolved in 230 μl of 2M potassium hydroxide and in 280 μl of dimethylsulfoxide. The absorption was measured at 630 nm. For calculation, the absorbance at 630 nm was normalized for each individual well. The mean of the four blank values was subtracted from each corrected value for each time point. NOX activities were expressed as % of the activity in control cells. Residual activity of DPI-treated cells was usually <10%.

Experiment [4] relates to NOX activities. Description: H2DCF-DA ROS measurement in TGF-β stimulated HUVEC. Type of experiment: cell-based, Human. The conditions noted are these: 'usually'. On the procedure: HUVEC are cultured in endothelial basal medium supplemented with hydrocortisone (1 μg/mL, CalbioChem), bovine brain extract (12 μg/mL), gentamicin (50 μg/mL, CalbioChem), amphotericin B (50 ng/mL, CalBioChem EGF (10 ng/mL, and 10% FCS until the fourth passage. When the fifth passage was started, cells were cultured with a lower concentration of FCS (2%) in the absence of EGF, if not indicated otherwise. All experiments were done with cells of the fifth passage. The cells were incubated with O×LDL (oxidized low-density lipoprotein) or its buffer as control for 24 h, before detection of O2^− formation.
HUVEC were plated on coverslips and made quiescent overnight in 0.5% BSA before stimulation with TGF-β. Cells were loaded for 10 minutes with 5 μM CM-H2DCFDA in phenol-red-free medium in the dark and then treated with TGF-β (R&D Systems) in the presence or absence of compounds according to the invention. Cells were then visualized by immunofluorescence microscopy after fixation and staining of the nuclei with DAPI or examined live using confocal microscopy. DCF fluorescence was visualized at an excitation wavelength of 488 nm and emission at 515 to 540 nm. […] For calculation, the absorbance at […] was normalized to absorbance at […] for each individual well. […] NOX activities were expressed as % of the activity in control cells. […]

For another experiment, the system named is T1, NOX activity.
T1 construct: rows headed: Residual activity of DPI-treated cells (NOX activity, % of control cells); other: Amplex Red, DPI 10 μM, 'usually'
Briefly: Amplex Red measurement of extracellular hydrogen peroxide (NOX activity) in DMSO-differentiated HL60 cells. Type of experiment: cell-based, Human. The conditions noted are these: DPI 10 μM, 'usually'. As for the experimental part: Human acute myeloid leukemia cell line HL-60 was cultured in RPMI 1640 (Invitrogen) supplemented with 10% heat-inactivated calf serum, 2 mM glutamine, 100 U/mL penicillin (Sigma), and 100 μg streptomycin (Sigma) at 37° C. under a humidified atmosphere of 5% CO2. HL60 differentiation to the neutrophil phenotype was triggered by adding Me2SO (final concentration 1.25% v/v for 6 days) to the culture medium.
Extracellular hydrogen peroxide was measured using Amplex UltraRed (Molecular Probes). Cells were trypsinized (1× Trypsin-EDTA), collected by centrifugation, and resuspended in HBSS supplemented with 1% glucose. Cells were seeded into black 96-well plates at a density of 50,000 cells in 200 μl testing buffer (HBSS 1% glucose containing 0.005 U/mL horseradish peroxidase (Roche) and 50 μM Amplex Red in the presence or absence of compounds according to the invention. As a control, DPI was included at a final concentration of 10 μM The plates were placed in the fluorescent Optima Fluorescent plate reader and kept at 37° C. during 20 min. Fluorescence was measured for […] with excitation and emission wavelengths of 544 nm and 590 nm respectively. NOX activities were expressed as % of the activity in control cells. Residual activity of DPI-treated cells was usually <10%.

In experiment [5] the test system is NOX activities. Description: Chemiluminescence (luminol) ROS measurement in cells. Type of experiment: cell-based. As to conditions: 'usually'. As for the experimental part: ROS was measured using the chemiluminescent probe luminol. Cells were cultured and plated as for Amplex Red except that the Amplex Red agent was replaced by 10 μg/mL luminol (Sigma 09235). Light emission was recorded continuously at 37° C. for 60 minutes using the luminescence function of the FluoStar Optima fluorescent plate reader. The mean of the four blank values was subtracted from each corrected value for each time point. NOX activities were expressed as % of the activity in control cells. Residual activity of DPI-treated cells was usually <10%.

With `O=c1c2c3n(c(=O)cc2[nH]n1-c1ccccc1Cl)CCCN(Cc1ccccc1)C3` [Compound 3, 10-benzyl-2-(2-chlorophenyl)-2,3,8,9,10,11-hexahydro-1H-pyrazolo[4′,3′:3,4]pyrido[1,2-a][1,4]diazepine-1,5(7H)-dione], the “inhibition of collagen deposition as compared to bleomycin control” value with collagen deposition [1] (10 mg/kg per os once a day from day 10 to day 35, mice) worked out at 64%; with collagen deposition [1] (40 mg/kg per os once a day from day 10 to day 35, mice), 52%; with collagen deposition [2] (40 mg/kg per os once a day from day 0 for five weeks), 46%.

Consider `c1ccc([I+]c2ccccc2)cc1` [DPI, Diphenyl-iodonium], for which the “Residual activity of DPI-treated cells (NOX activity, % of control cells)” value with NOX activities [3], with NOX activities [4], in the experiment on NOX activity and in the experiment on NOX activities [5] was less than 10% throughout.

With `Cc1ccc(=O)n(-c2ccccc2)c1` [Pirfenidone], the “inhibition of collagen deposition as compared to bleomycin control” value in the experiment on collagen deposition [1] (100 mg/kg per os once a day from day 10 to day 35, mice) was found to be 12%; in the experiment with collagen deposition [2] (100 mg/kg per os once a day from day 0 for five weeks), 45%.
